Values of other authors as cited in US20230285409A1, “METHODS OF USING RHO KINASE INHIBITORS TO TREAT VASCULAR DEMENTIA” (Woolsey Pharmaceuticals, Inc., priority 2020, published 2023).
Counter-ions that a name gives are not always drawn.

How the values were obtained:
[1] = in vivo, 1-hydroxy metabolite; cited from earlier work
[2] = biological target: p38 mitogen-activated protein kinase (Homo sapiens, UniProt Q16539); conditions: cited from earlier work
[3] = test system: patients with wandering due to VaD; conditions: cited from earlier work
[4] = test system: streptozotocin rats; conditions: 5 and 10 mg/kg/day intraperitoneally; cited from earlier work
[5] = test system: triple transgenic mice; conditions: 30 mg/kg and 100 mg/kg in water, 10 or 12 months of age; cited from earlier work
[6] = test system: triple transgenic mouse model (APP Swedish, MAPT P301L, and PSEN1 M146V); conditions: 10 mg/kg/day intraperitoneally; cited from earlier work
[7] = test system: APP/PS1 transgenic mice; conditions: 5 and 10 mg/kg/day intraperitoneally; cited from earlier work
[8] = test system: VaD patients; conditions: cited from earlier work

p38 mitogen-activated protein kinase, sequence (Q16539 whole entry): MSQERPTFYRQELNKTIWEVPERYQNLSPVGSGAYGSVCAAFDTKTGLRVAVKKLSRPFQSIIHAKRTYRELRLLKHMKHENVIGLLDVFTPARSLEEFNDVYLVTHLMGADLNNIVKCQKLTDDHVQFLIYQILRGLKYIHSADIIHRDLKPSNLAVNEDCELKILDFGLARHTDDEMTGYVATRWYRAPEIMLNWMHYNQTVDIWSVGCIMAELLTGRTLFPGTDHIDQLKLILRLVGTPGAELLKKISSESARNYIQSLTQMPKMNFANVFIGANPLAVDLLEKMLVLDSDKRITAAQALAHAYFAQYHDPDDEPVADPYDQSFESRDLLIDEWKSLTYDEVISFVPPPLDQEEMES

Structure (SMILES): O=S(=O)(c1cccc2c(O)nccc12)N1CCCNCC1 [M3]
- half-life [1]: about 8 hours

Structure (SMILES): O=c1ncn2nc(Sc3ccc(F)cc3F)ccc2c1-c1c(Cl)cccc1Cl [Neflamapimod]
- primary endpoint of improving episodic memory ([2]; Phase 2): failed its primary endpoint
- tau in the cerebrospinal fluid ([2]; Phase 2): reducing tau
- Aβ deposition ([2]; in humans): no effect on Aβ deposition

Structure (SMILES): O=S(=O)(c1cccc2cnccc12)N1CCCNCC1 [fasudil, Hexahydro-1-(5-Isoquinolinesulfonyl)-1H-1,4-Diazepine Monohydrochloride Hemihydrate]
- cognitive improvements (MMSE) ([3]; 30 mg and 60 mg per day, case studies): about 3 points
- dose response ([3]; 30 mg and 60 mg per day): no dose response
- spatial orientation ([3]; case studies): no improvement in spatial orientation
- wandering symptoms ([3]; patient with Binswanger-type cerebral infarction, within weeks of beginning treatment): wandering symptoms disappeared
- latency distance and quadrant time in the Morris water maze [4]: improved
- spatial memory [5]: did not observe improvements in spatial memory
- ß-amyloid plaques in vivo [6]: reduce ß-amyloid plaques
- latency distance and quadrant time in the Morris water maze [7]: improved
- MMSE differential versus control ([8]; 30 mg iv daily, control intravenous ligustrazine): 7 point
- improvement in MMSE over baseline ([8]; 30 mg iv infusion daily, 2 weeks, 2 days off, 2 more weeks, mean or median unclear): 9 point
- ADL score after treatment ([8]; after treatment, baseline 54, >26 functionally impaired): 36
- MMSE score after treatment ([8]; after treatment, baseline mean about 17): ~27
